Test results as given in patent US20120211082A1, “PHOTOELECTRIC CONVERSION DEVICE AND SOLAR CELL USING THE SAME” (MITSUBISHI CHEMICAL CORPORATION, priority 2009, published 2012).

Experiments:
Assay type in all cases: physicochemical
[1] = Solubility of fullerene compounds in toluene; details: mixed at 40° C., returned to 25° C.
Description: With regard to the solubility of various fullerene compounds, a powder of a fullerene derivative and toluene were mixed at 40° C. The amount of toluene used at this time was a minimum amount at which dissolution was confirmed at 40° C. Thereafter, temperature was returned to 25° C. and no precipitation was confirmed. The concentration of the toluene on this occasion was regarded as the solubility. In the case where precipitation was observed, toluene was further added until dissolution, and the concentration of the toluene at the time when dissolution was finally confirmed was regarded as the solubility.

[2] = Solubility of buffer material in methanol at room temperature
[3] = Solubility in THF noted during cyclic voltammetry; details: cyclic voltammetry conditions
Description: Thus, using a mixed solvent of o-dichlorobenzene and acetonitrile (4:1, volume ratio) instead of THF, the cyclic voltammetry was performed.

Compound	Solubility (% by weight) [1] [% by weight]	Solubility (MeOH, room temperature)/% by weight [2] [% by weight]	Solubility in THF [3]
1-(3-methoxycarbonyl)propyl-1-phenyl(6,6)-C60 [PCBM]	1.5	–	–
Cc1cc(-c2ccccc2)c2ccc3c(-c4ccccc4)cc(C)nc3c2n1 [BCP, 2,9-dimethyl-4,7-diphenyl-1,10-phenanthroline]	–	0.1	–
O=P(c1ccccc1)(c1ccccc1)c1ccc2ccccc2c1-c1c(P(=O)(c2ccccc2)c2ccccc2)ccc2ccccc12 [BINAPO]	–	4	–
c12c3c4c5c1c1c6c7c2c2c8c3c3c9c4c4c%10c5c5c1c1c6c6c%11c7c2c2c7c8c3c3c8c9c4c4c9c%10c5c5c1c1c6c6c%11c2c2c7c3c3c8c4c4c9c5c1c1c6c2c3c41 [C60, fullerene]	0.3	–	sparingly soluble
c1ccc(-c2cc(-c3ccc4ccccc4c3)nc3c2ccc2c(-c4ccccc4)cc(-c4ccc5ccccc5c4)nc23)cc1 [NBPhen]	–	<0.01	–
O=P(c1ccccc1)(c1ccccc1)c1cccc(-c2cc(-c3ccccc3)cc(-c3cccc(P(=O)(c4ccccc4)c4ccccc4)c3)n2)c1 [PO(TPP)PO]	–	>8	–
O=P(c1ccccc1)(c1ccccc1)c1ccc2c(c1)c1cc(P(=O)(c3ccccc3)c3ccccc3)ccc1n2-c1ccccc1 [POCzPO]	–	>8	–
O=P(c1ccccc1)(c1ccccc1)c1c(F)c(F)c(-c2c(F)c(F)c(P(=O)(c3ccccc3)c3ccccc3)c(F)c2F)c(F)c1F [POFBPO]	–	1	–
O=P(c1ccccc1)(c1ccccc1)c1ccccc1 [POPh3]	–	>5.0	–
O=P(c1ccccc1)(c1ccc2ccc3cccc4ccc1c2c34)c1ccc2ccc3cccc4ccc1c2c34 [POPy2]	–	<0.01	–
O=P(c1ccccc1)(c1ccccc1)c1ccc2c(c1)C1(c3ccccc3-c3ccccc31)c1cc(P(=O)(c3ccccc3)c3ccccc3)ccc1-2 [POSFPO]	–	0.5	–
c1ccc(-n2c(-c3cc(-c4nc5ccccc5n4-c4ccccc4)cc(-c4nc5ccccc5n4-c4ccccc4)c3)nc3ccccc32)cc1 [TPBi]	–	<0.01	–
